Data reported in ChEMBL document CHEMBL1201862, “PubChem BioAssay data set” (2004).
Calls of active or inactive are those of the source.

How the values were obtained:
[1] = Late stage counterscreen results from the probe development effort to identify activators of signal transducer and activator of transcription 1 (STAT1): luminescence-based cell-based dose response assay to identify cytotoxic compounds.; assay type: functional
[2] = molecular target: Ephrin type-A receptor 4 (Mus musculus, UniProt Q03137); assay: inhibitors of EphA4 binding to KYL peptide, primary screen, biochemical, colorimetric, mouse EphA4 (AID 689); assay type: functional
Chain of Ephrin type-A receptor 4 (Q03137 whole entry): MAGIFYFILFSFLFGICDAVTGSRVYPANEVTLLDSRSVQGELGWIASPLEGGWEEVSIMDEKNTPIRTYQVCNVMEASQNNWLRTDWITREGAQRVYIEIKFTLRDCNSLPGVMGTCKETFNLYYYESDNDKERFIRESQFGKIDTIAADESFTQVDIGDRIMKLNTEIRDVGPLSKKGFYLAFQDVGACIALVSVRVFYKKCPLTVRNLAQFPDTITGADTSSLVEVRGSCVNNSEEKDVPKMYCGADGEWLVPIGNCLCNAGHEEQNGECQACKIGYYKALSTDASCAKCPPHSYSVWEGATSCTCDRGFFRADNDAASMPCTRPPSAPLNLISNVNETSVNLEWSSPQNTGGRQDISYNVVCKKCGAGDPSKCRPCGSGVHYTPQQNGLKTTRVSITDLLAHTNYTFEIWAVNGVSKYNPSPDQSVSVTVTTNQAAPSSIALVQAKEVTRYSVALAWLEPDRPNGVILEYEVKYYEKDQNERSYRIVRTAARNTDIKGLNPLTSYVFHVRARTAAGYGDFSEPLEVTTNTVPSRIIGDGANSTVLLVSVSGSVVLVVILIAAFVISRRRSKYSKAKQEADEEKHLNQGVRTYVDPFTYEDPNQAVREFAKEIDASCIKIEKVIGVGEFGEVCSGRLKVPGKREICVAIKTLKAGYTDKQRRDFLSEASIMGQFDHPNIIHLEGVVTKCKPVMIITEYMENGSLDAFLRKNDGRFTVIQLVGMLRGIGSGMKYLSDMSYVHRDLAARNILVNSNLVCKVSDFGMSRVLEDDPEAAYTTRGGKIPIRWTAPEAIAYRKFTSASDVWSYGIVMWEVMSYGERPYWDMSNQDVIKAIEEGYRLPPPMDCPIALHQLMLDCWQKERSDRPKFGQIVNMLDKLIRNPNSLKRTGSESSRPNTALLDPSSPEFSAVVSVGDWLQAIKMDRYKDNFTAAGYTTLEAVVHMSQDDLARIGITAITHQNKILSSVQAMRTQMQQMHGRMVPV

[3] = molecular target: Cytochrome P450 2C19 (Homo sapiens, UniProt P33261); assay: Cytochrome panel assay with activity outcomes. Panel member name: p450-cyp2c19 Compounds with AC50 equal or less than 10 uM are considered active; assay type: functional; settings: read-out: AC50
Chain of Cytochrome P450 2C19 (P33261 whole entry): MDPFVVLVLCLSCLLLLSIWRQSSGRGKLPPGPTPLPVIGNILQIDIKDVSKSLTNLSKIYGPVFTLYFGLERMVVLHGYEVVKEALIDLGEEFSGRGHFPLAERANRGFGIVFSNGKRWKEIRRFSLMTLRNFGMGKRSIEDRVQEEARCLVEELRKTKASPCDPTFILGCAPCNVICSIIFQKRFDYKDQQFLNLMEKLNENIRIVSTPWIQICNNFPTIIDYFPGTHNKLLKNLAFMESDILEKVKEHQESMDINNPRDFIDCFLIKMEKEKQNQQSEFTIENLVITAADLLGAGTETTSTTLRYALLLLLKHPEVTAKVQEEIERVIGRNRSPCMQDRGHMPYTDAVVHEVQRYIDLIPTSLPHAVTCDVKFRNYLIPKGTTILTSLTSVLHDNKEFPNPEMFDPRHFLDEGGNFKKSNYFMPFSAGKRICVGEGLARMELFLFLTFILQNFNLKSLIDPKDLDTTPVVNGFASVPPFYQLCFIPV

[4] = molecular target: Cytochrome P450 3A4 (Homo sapiens, UniProt P08684);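 also: CYP3A4 tested as one member of a cytochrome P450 panel screen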
Chain of Cytochrome P450 3A4 (P08684 whole entry): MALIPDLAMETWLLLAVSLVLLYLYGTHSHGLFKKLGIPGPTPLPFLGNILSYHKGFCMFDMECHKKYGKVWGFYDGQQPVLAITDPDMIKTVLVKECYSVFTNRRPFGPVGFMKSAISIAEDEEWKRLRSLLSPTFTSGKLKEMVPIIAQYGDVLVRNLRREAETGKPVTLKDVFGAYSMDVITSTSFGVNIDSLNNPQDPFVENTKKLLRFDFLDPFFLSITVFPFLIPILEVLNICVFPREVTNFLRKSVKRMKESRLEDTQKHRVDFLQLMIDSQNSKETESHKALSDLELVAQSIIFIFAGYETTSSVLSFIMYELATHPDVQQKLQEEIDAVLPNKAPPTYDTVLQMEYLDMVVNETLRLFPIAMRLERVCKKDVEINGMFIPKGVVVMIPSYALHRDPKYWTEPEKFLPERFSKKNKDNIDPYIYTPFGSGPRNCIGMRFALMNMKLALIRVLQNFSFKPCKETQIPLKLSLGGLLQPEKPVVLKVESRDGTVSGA

[5] = M. tuberculosis growth inhibition, HTS (AID 449762); assay type: functional
[6] = molecular target: Voltage-gated inwardly rectifying potassium channel KCNH2 (Homo sapiens, UniProt Q12809); assay: hERG protection from proarrhythmic block, potency, dose response, cell-based, thallium flux (AID 2121); assay type: ADME
Chain of Voltage-gated inwardly rectifying potassium channel KCNH2 (Q12809 whole entry): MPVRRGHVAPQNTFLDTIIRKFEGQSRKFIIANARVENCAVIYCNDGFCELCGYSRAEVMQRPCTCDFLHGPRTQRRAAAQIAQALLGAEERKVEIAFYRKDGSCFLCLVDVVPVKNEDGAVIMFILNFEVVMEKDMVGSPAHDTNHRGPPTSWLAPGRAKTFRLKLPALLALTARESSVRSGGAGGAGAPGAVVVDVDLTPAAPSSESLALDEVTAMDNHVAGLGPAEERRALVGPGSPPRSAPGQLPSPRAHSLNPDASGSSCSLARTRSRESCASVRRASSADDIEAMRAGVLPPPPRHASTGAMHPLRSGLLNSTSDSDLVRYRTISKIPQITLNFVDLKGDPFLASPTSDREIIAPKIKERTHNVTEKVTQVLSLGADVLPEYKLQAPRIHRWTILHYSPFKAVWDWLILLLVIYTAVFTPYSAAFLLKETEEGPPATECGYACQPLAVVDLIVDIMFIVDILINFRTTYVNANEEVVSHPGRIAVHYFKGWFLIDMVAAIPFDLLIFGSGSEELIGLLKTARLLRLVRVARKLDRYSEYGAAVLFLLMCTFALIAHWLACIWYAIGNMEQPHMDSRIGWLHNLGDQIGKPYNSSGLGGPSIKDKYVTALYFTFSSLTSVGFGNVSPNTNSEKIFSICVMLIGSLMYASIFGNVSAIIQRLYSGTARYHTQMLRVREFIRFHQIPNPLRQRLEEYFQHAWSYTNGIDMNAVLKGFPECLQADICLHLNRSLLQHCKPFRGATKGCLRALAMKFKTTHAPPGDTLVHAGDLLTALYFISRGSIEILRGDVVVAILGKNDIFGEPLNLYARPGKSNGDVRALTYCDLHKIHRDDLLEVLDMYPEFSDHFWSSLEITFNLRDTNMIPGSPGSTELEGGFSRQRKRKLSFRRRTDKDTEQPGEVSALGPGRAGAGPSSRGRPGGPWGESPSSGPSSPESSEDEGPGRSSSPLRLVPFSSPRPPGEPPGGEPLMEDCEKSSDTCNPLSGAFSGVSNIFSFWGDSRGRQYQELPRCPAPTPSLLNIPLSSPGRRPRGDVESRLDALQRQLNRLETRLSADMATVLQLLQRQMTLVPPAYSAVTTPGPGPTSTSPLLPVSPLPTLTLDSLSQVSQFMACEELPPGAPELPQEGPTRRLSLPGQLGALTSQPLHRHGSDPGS

[7] = system: Vero; assay: cytotoxicity of synthesized analogs in Vero cells, SAR follow-up, cytotoxicity control for West Nile virus antiviral project, cell-based, set II (AID 2402); assay type: functional; settings: Chlorocebus sabaeus
[8] = molecular target: Diphosphomevalonate decarboxylase (Streptococcus pneumoniae serotype 2 (strain D39 / NCTC 7466), UniProt Q9FD53); assay: S. pneumoniae DPM-DC inhibition retest, confirmation, biochemical, cuvette format, coupled NADH fluorescence (AID 1028); assay type: functional
Chain of Diphosphomevalonate decarboxylase (Q9FD53 whole entry): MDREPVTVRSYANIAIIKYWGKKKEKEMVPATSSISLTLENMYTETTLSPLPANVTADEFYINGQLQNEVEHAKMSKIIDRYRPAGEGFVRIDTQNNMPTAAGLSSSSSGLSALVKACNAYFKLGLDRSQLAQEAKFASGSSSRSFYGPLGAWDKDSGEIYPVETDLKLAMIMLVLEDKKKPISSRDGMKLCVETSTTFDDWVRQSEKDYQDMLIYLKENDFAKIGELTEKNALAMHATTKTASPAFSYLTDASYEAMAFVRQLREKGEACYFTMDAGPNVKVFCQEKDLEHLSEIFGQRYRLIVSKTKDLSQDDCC

[9] = Luminescent dose response cell-based high throughput screening assay for inhibitors of the Janus kinase 2 mutant JAK2V617F. [Related pubchem assays: 1446 (Primary screen.), 1521 (Confirmation assay.), 1486 (Counter screen.)]; assay type: functional
[10] = NIH-3T3 fibroblast cytotoxicity, dose response, cytotoxicity control, cell-based, fluorescence, Alamar Blue, secondary assay (AID 2327); assay type: functional;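 also: NIH-3T3 mouse fibroblasts cultured with fluconazole at 8 µg/mL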
[11] = C. albicans growth with fluconazole, confirmation, fluorescence, retest (AID 2467); assay type: functional, cell-based
[12] = molecular target: Induced myeloid leukemia cell differentiation protein Mcl-1 (Homo sapiens, UniProt Q07820); assay type: functional
Chain of Induced myeloid leukemia cell differentiation protein Mcl-1 (Q07820 whole entry): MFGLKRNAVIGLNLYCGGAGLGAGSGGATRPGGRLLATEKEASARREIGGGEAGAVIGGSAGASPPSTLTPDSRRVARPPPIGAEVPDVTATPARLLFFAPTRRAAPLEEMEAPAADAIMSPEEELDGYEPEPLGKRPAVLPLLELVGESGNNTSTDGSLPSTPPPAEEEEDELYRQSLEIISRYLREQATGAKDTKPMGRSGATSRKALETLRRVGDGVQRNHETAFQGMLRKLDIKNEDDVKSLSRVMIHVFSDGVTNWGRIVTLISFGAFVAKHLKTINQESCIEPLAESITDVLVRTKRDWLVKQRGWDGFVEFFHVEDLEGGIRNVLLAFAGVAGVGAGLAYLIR

[13] = molecular target: T1, Mannose-6-phosphate isomerase (Homo sapiens, UniProt P34949); assay: human PMI inhibitors, high substrate, primary screen, biochemical, fluorescence intensity, high mannose 6-phosphate (AID 1220)
T1 sequence (P34949 whole entry): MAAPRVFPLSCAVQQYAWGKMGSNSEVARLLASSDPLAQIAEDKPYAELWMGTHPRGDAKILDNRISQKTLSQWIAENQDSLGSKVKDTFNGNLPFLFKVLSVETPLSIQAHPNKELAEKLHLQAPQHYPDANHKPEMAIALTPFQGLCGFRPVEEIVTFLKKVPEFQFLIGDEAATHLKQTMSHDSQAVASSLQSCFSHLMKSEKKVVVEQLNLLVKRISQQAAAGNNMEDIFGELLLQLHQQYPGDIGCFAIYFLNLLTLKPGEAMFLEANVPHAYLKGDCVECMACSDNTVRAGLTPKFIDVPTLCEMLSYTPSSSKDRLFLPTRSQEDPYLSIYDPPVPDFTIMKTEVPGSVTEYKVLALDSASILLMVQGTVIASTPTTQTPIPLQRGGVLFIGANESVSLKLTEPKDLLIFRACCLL

[14] = molecular target: T2, Histone-lysine N-methyltransferase NSD2 (Homo sapiens, UniProt O96028); assay type: biochemical
T2 sequence (O96028 whole entry): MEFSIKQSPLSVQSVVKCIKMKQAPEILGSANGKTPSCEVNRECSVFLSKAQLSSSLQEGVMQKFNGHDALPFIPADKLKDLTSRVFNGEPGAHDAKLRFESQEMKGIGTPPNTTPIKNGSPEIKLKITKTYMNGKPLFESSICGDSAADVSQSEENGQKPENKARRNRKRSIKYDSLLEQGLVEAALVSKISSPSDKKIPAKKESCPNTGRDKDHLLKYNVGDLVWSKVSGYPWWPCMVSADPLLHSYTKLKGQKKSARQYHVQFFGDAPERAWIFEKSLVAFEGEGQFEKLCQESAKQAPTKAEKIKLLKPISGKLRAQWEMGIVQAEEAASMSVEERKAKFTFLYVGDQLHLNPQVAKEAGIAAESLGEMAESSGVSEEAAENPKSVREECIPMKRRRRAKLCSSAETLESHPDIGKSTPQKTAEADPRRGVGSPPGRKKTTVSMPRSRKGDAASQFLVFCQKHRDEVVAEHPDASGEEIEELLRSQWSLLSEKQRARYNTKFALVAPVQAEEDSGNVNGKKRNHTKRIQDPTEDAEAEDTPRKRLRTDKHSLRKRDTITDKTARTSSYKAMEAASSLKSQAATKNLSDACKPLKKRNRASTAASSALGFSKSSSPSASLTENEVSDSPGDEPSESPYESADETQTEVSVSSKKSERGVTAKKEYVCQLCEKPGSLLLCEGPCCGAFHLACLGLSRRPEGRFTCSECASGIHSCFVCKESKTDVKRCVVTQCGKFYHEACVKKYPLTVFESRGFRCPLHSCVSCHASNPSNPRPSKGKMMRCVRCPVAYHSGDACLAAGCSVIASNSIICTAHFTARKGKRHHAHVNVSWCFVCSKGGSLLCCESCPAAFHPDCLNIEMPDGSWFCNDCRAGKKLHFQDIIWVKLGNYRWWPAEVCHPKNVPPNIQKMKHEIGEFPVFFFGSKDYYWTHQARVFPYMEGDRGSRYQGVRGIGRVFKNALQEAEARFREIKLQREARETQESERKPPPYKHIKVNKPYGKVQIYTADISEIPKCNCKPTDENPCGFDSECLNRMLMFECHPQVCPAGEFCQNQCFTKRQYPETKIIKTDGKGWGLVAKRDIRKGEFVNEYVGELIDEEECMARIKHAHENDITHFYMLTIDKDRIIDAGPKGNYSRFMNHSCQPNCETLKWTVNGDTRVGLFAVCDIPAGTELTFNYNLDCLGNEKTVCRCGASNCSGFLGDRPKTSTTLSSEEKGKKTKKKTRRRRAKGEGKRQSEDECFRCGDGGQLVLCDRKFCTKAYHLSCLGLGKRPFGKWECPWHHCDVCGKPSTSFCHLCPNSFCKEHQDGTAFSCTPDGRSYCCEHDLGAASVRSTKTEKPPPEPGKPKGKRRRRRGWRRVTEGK

## COc1ccc(-c2csc(N3C(=O)CNC3=S)n2)cc1
[1]
  IC50: > 55.7 µM (not active)

## CCOC(=O)c1c(N=C(S)Nc2ccccc2)sc2c1CCN(CCc1ccccc1)C2
[2]
  IC50: 14.7 µM (active)
[3]
  AC50: 22.4 µM (inconclusive)
[4]
  AC50: 22.4 µM (inconclusive)

## CC(C)(C)c1nc2sc3c(c2c(=O)o1)CCCC3
[5]
  IC50: > 100 µM (active)

## Cc1onc(-c2ccccc2)c1C(=O)NC(=S)Nc1sc2c(c1C#N)CCC(C)C2 (centres undefined)
[6]
  EC50: 0.86 µM (active)

## OC1c2cc(Br)ccc2N=C2CCCCN21 (centres undefined)
[7]
  CC50: > 200 µM (active)

## O=C(NCc1ccco1)c1ccccc1-n1sc2ccccc2c1=O
[8]
  IC50: 38.7 µM (active)

## Cc1c(Cc2ccccc2)c(=O)oc2c(O)c(O)ccc12
[9]
  IC50: 2.67 µM (active)
[10]
  EC50: 18.7 µM (active)
[11]
  EC50: 2.73 µM (active)
[12]
  IC50: 11.7 µM (not active)
[13]
  IC50: 29.6 µM (active)
[14]
  AC50: > 20 µM (inactive)
